Laboratory results reported in ChEMBL document CHEMBL1141477, “Synthesis and anticancer activity studies of cyclopamine derivatives” (Bioorg Med Chem Lett, 2008).
The source made the active and inactive calls. The rule behind the calls is not given here.

The compounds below were run on A549 (assay: Anticancer activity against human A549 cells by MTS assay).
Assay type: functional, cell-based
`CC(=O)OC[C@H]1O[C@@H](n2cc(CN3C[C@@H](C)C[C@H]4O[C@]5(CC[C@@H]6C(=C5C)C[C@H]5[C@H]6CC=C6C[C@@H](O)CC[C@@]65C)[C@H](C)[C@@H]43)nn2)[C@H](OC(C)=O)[C@@H](OC(C)=O)[C@@H]1OC(C)=O` gave an IC50 of 144 µM.
In the case of `CC(=O)OC[C@H]1O[C@@H](n2cc(CN3C[C@@H](C)C[C@H]4O[C@]5(CC[C@@H]6C(=C5C)C[C@H]5[C@H]6CC=C6C[C@@H](O)CC[C@@]65C)[C@H](C)[C@@H]43)nn2)[C@H](OC(C)=O)[C@@H](OC(C)=O)[C@@H]1O[C@@H]1O[C@H](COC(C)=O)[C@@H](O[C@@H]2O[C@H](COC(C)=O)[C@@H](OC(C)=O)[C@H](OC(C)=O)[C@H]2OC(C)=O)[C@H](OC(C)=O)[C@H]1OC(C)=O`, the IC50 is reported as 96 µM.
In the case of `CC1=C2C[C@H]3[C@@H](CC=C4C[C@@H](O)CC[C@@]43C)[C@@H]2CC[C@]12O[C@@H]1C[C@H](C)CN[C@H]1[C@H]2C` [CYCLOPAMINE], the IC50 is reported as 49 µM.
`CC(=O)OC[C@H]1O[C@@H](O[C@H]2[C@H](OC(C)=O)[C@@H](OC(C)=O)[C@H](n3cc(CN4C[C@@H](C)C[C@H]5O[C@]6(CC[C@@H]7C(=C6C)C[C@H]6[C@H]7CC=C7C[C@@H](O)CC[C@@]76C)[C@H](C)[C@@H]54)nn3)O[C@@H]2COC(C)=O)[C@H](OC(C)=O)[C@@H](OC(C)=O)[C@H]1OC(C)=O` gave an IC50 of 183 µM.
Compound `CC(=O)O[C@@H]1[C@@H](OC(C)=O)[C@@H](OC(C)=O)C(n2cc(CN3C[C@@H](C)C[C@H]4O[C@]5(CC[C@@H]6C(=C5C)C[C@H]5[C@H]6CC=C6C[C@@H](O)CC[C@@]65C)[C@H](C)[C@@H]43)nn2)O[C@H]1C` (stereo partly specified) has an IC50 of 33 µM.

The compounds below were run on A549 (assay: Anticancer activity against human A549 cells at 200 uM by MTS assay).
Assay type: functional, cell-based
With `CC(=O)N[C@@H]1[C@@H](OC(C)=O)[C@H](OC(C)=O)[C@@H](COC(C)=O)O[C@H]1n1cc(CN2C[C@@H](C)C[C@H]3O[C@]4(CC[C@@H]5C(=C4C)C[C@H]4[C@H]5CC=C5C[C@@H](O)CC[C@@]54C)[C@H](C)[C@@H]32)nn1` the Activity was “inactive”.
For `CC(=O)OC[C@H]1O[C@@H](n2cc(CN3C[C@@H](C)C[C@H]4O[C@]5(CC[C@@H]6C(=C5C)C[C@H]5[C@H]6CC=C6C[C@@H](O)CC[C@@]65C)[C@H](C)[C@@H]43)nn2)[C@H](OC(C)=O)[C@@H](OC(C)=O)[C@H]1OC(C)=O`, the Activity was “inactive”.
For `CC(=O)N[C@@H]1[C@@H](OC(C)=O)[C@@H](OC(C)=O)[C@@H](COC(C)=O)O[C@H]1n1cc(CN2C[C@@H](C)C[C@H]3O[C@]4(CC[C@@H]5C(=C4C)C[C@H]4[C@H]5CC=C5C[C@@H](O)CC[C@@]54C)[C@H](C)[C@@H]32)nn1`, the Activity was “inactive”.
For `CC(=O)O[C@@H]1[C@@H](OC(C)=O)[C@@H](n2cc(CN3C[C@@H](C)C[C@H]4O[C@]5(CC[C@@H]6C(=C5C)C[C@H]5[C@H]6CC=C6C[C@@H](O)CC[C@@]65C)[C@H](C)[C@@H]43)nn2)OC[C@H]1OC(C)=O`, the Activity was “inactive”.
`CC(=O)OC[C@H]1OC(n2cc(CN3C[C@@H](C)C[C@H]4O[C@]5(CC[C@@H]6C(=C5C)C[C@H]5[C@H]6CC=C6C[C@@H](O)CC[C@@]65C)[C@H](C)[C@@H]43)nn2)[C@@H](OC(C)=O)[C@@H](OC(C)=O)[C@@H]1OC(C)=O` (stereo partly specified) was tested, and the Activity was “inactive”.
In the case of `CC(=O)OC[C@H]1O[C@@H](n2cc(CN3C[C@@H](C)C[C@H]4O[C@]5(CC[C@@H]6C(=C5C)C[C@H]5[C@H]6CC=C6C[C@@H](O)CC[C@@]65C)[C@H](C)[C@@H]43)nn2)[C@H](OC(C)=O)[C@@H](OC(C)=O)[C@@H]1O[C@@H]1O[C@H](COC(C)=O)[C@@H](OC(C)=O)[C@H](OC(C)=O)[C@H]1OC(C)=O`, the Activity is reported as “inactive”.
